Measurements reported in ChEMBL document CHEMBL1201862, “PubChem BioAssay data set” (2004).
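Test compounds were applied to cells in 96-well plates for 48 hours at 5 doses. Here, GI50 denotes the concentration required for 50% inhibition of growth.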 Active and inactive are the calls of the source. Rule as the data show it: active = GI50 up to about 1.1 µM and inactive = higher.

What was measured:
Assay in all cases: NCI-60 cell line screen, 48 h
OVCAR-3 = tested on: OVCAR-3
LOX IMVI = tested on: LOX IMVI
UACC-62 = tested on: UACC-62
HCT-15 = tested on: HCT-15
UO-31 = tested on: UO-31
CAKI-1 = tested on: CAKI-1
SF-295 = tested on: SF-295
T47D = tested on: T47D
SK-OV-3 = tested on: SK-OV-3
MOLT-4 = tested on: MOLT-4
MDA-MB-231 = tested on: MDA-MB-231
OVCAR-4 = tested on: OVCAR-4
HL-60 = tested on: HL-60
M14 = tested on: M14
SF-539 = tested on: SF-539
SN12C = tested on: SN12C
A549 = tested on: A549
SR = tested on: SR
ACHN = tested on: ACHN
SW-620 = tested on: SW-620
HOP-92 = tested on: HOP-92
HOP-62 = tested on: HOP-62
MCF7 = tested on: MCF7
CCRF-CEM = tested on: CCRF-CEM
IGROV-1 = tested on: IGROV-1
EKVX = tested on: EKVX
Hs-578T = tested on: Hs-578T
MDA-N = tested on: MDA-N
SF-268 = tested on: SF-268
Malme-3M = tested on: Malme-3M
SNB-19 = tested on: SNB-19
SNB-75 = tested on: SNB-75
OVCAR-5 = tested on: OVCAR-5
NCI/ADR-RES = tested on: NCI/ADR-RES
SK-MEL-2 = tested on: SK-MEL-2
HCT-116 = tested on: HCT-116
RPMI-8226 = tested on: RPMI-8226
HT-29 = tested on: HT-29
BT-549 = tested on: BT-549
DU-145 = tested on: DU-145
OVCAR-8 = tested on: OVCAR-8
NCI-H23 = tested on: NCI-H23
KM12 = tested on: KM12
RXF 393 = tested on: RXF 393
COLO 205 = tested on: COLO 205
A498 = tested on: A498
786-0 = tested on: 786-0
NCI-H226 = tested on: NCI-H226
HCC 2998 = tested on: HCC 2998
UACC-257 = tested on: UACC-257
SK-MEL-5 = tested on: SK-MEL-5
NCI-H522 = tested on: NCI-H522
TK-10 = tested on: TK-10
MDA-MB-435 = tested on: MDA-MB-435
U-251 = tested on: U-251
K562 = tested on: K562
NCI-H460 = tested on: NCI-H460
SK-MEL-28 = tested on: SK-MEL-28
PC-3 = tested on: PC-3

O=C1NC(=O)c2ccccc2/C1=C/c1ccc2c(c1)OCO2
GI50 (OVCAR-3): 5.37 µM (inactive) | GI50 (LOX IMVI): 20.9 µM (inactive) | GI50 (UACC-62): 22.1 µM (inactive) | GI50 (HCT-15): 15.6 µM | GI50 (UO-31): 17.2 µM (inactive) | GI50 (CAKI-1): 24.5 µM (inactive) | GI50 (SF-295): 24.5 µM (inactive) | GI50 (T47D): > 100 µM (inactive) | GI50 (SK-OV-3): 27.3 µM (inactive) | GI50 (MOLT-4): 11.5 µM (inactive) | GI50 (MDA-MB-231): 12.3 µM (inactive) | GI50 (OVCAR-4): 49.1 µM (inactive) | GI50 (HL-60): 2.72 µM (inactive) | GI50 (M14): 24 µM (inactive) | GI50 (SF-539): 21.5 µM (inactive) | GI50 (SN12C): 19.9 µM (inactive) | GI50 (A549): 34 µM (inactive) | GI50 (SR): 36 µM (inactive) | GI50 (ACHN): 15.8 µM (inactive) | GI50 (SW-620): 30.5 µM (inactive) | GI50 (HOP-92): 27.1 µM (inactive) | GI50 (HOP-62): 11.2 µM (inactive) | GI50 (MCF7): 20 µM (inactive) | GI50 (CCRF-CEM): 5.92 µM (inactive) | GI50 (IGROV-1): 23.7 µM (inactive) | GI50 (EKVX): 51.1 µM (inactive) | GI50 (Hs-578T): 10.4 µM (inactive) | GI50 (MDA-N): 26 µM (inactive) | GI50 (SF-268): 21.8 µM (inactive) | GI50 (Malme-3M): 31.3 µM (inactive) | GI50 (SNB-19): 32 µM (inactive) | GI50 (SNB-75): 28.1 µM (inactive) | GI50 (OVCAR-5): 29.2 µM (inactive) | GI50 (NCI/ADR-RES): 17.9 µM (inactive) | GI50 (SK-MEL-2): 24.6 µM (inactive) | GI50 (HCT-116): 5 µM (inactive) | GI50 (RPMI-8226): 19.3 µM (inactive) | GI50 (HT-29): 20.8 µM (inactive) | GI50 (BT-549): 20.9 µM (inactive) | GI50 (DU-145): 40.3 µM (inactive) | GI50 (OVCAR-8): 28 µM (inactive) | GI50 (NCI-H23): 22.3 µM (inactive) | GI50 (KM12): 17 µM (inactive) | GI50 (RXF 393): 3.29 µM (inactive) | GI50 (COLO 205): > 10 µM (inactive) | GI50 (A498): > 100 µM (inactive) | GI50 (786-0): 8.02 µM (inactive) | GI50 (NCI-H226): 27.9 µM (inactive) | GI50 (HCC 2998): 14.6 µM (inactive) | GI50 (UACC-257): 21.4 µM (inactive) | GI50 (SK-MEL-5): 15.1 µM (inactive) | GI50 (NCI-H522): 31.3 µM (inactive) | GI50 (TK-10): 55.7 µM (inactive) | GI50 (MDA-MB-435): 18.4 µM (inactive)

COc1cc(C2(O)c3ccccc3C3=NCCN32)cc(OC)c1OC (stereo not drawn)
GI50 (OVCAR-3): > 100 µM (inactive) | GI50 (LOX IMVI): > 100 µM (inactive) | GI50 (UACC-62): > 100 µM (inactive) | GI50 (U-251): > 100 µM (inactive) | GI50 (HCT-15): > 100 µM | GI50 (UO-31): > 100 µM (inactive) | GI50 (CAKI-1): > 100 µM (inactive) | GI50 (SF-295): > 100 µM (inactive) | GI50 (T47D): > 100 µM (inactive) | GI50 (SK-OV-3): > 100 µM (inactive) | GI50 (MOLT-4): 30.3 µM (inactive) | GI50 (MDA-MB-231): > 100 µM (inactive) | GI50 (OVCAR-4): > 100 µM (inactive) | GI50 (HL-60): > 100 µM (inactive) | GI50 (K562): > 100 µM (inactive) | GI50 (SN12C): > 100 µM (inactive) | GI50 (NCI-H460): > 100 µM (inactive) | GI50 (A549): > 100 µM (inactive) | GI50 (SR): 64.3 µM (inactive) | GI50 (ACHN): > 100 µM (inactive) | GI50 (SW-620): > 100 µM (inactive) | GI50 (HOP-92): > 100 µM (inactive) | GI50 (HOP-62): > 100 µM (inactive) | GI50 (CCRF-CEM): > 100 µM (inactive) | GI50 (Hs-578T): > 100 µM (inactive) | GI50 (MDA-N): > 100 µM (inactive) | GI50 (SF-268): > 100 µM (inactive) | GI50 (SNB-19): 79.4 µM (inactive) | GI50 (SNB-75): > 100 µM (inactive) | GI50 (NCI/ADR-RES): > 100 µM (inactive) | GI50 (SK-MEL-28): > 100 µM (inactive) | GI50 (SK-MEL-2): > 100 µM (inactive) | GI50 (HCT-116): > 100 µM (inactive) | GI50 (RPMI-8226): > 100 µM (inactive) | GI50 (PC-3): > 100 µM (inactive) | GI50 (HT-29): > 100 µM (inactive) | GI50 (BT-549): > 100 µM (inactive) | GI50 (DU-145): > 100 µM (inactive) | GI50 (NCI-H23): > 100 µM (inactive) | GI50 (KM12): > 100 µM (inactive) | GI50 (COLO 205): > 100 µM (inactive) | GI50 (A498): > 100 µM (inactive) | GI50 (786-0): > 100 µM (inactive) | GI50 (NCI-H226): 73.3 µM (inactive) | GI50 (HCC 2998): > 100 µM (inactive) | GI50 (UACC-257): > 100 µM (inactive) | GI50 (SK-MEL-5): > 100 µM (inactive) | GI50 (TK-10): > 100 µM (inactive) | GI50 (MDA-MB-435): > 100 µM (inactive)
